Measured values taken from patent publication US8354447B2, “mGLU receptors antagonists for treating disorders associated with mGLU receptors including addiction and depression” (The Scripps Research Institute, priority 2002, dated 2013).

Experiments:
male Wistar rats [1] = test: Somatic signs of the nicotine withdrawal syndrome; type: in vivo, rat; details: six hours after removal of the nicotine-containing minipumps
Procedure: Rats were placed individually in transparent plastic cylindrical containers (30×38 cm) in which they could move freely. Subjects were habituated to the containers for 10 min each day over 3 days before the first test session. During the test sessions the rats were observed blindly by an experienced observer for 10 min and the frequency of the following signs was recorded based on a checklist of nicotine abstinence signs (Hildebrand et al. 1999; Watkins et al. 2000; Malin 2001): body shakes, chews, cheek tremors, escape attempts, eye blinks, foot licks, gasps, genital licks, head shakes, ptosis, scratches, teeth chattering, writhes and yawns. Multiple successive counts of any sign required a distinct pause between episodes. Ptosis, if present continuously, was only counted once per minute. For statistical analyses, the total number of somatic signs was defined as the sum of individual occurrences of the above mentioned withdrawal signs. Further, the categories of “abdominal constrictions” included gasps and writhes; “facial fasciculation” included cheek tremors, chews, and teeth chattering; and “miscellaneous other signs” included shakes, escape attempts, licks, scratches, and yawns.
Separate drug-naive rats were prepared with osmotic minipumps containing nicotine (3.16 mg/kg per day for 7 days) dissolved in saline. […] Further, this nicotine dose was selected to allow direct comparison of the effects of bupropion on somatic signs (present experiment 4) and on reward threshold elevations (experiment 3 described above) observed during nicotine withdrawal. To induce the somatic signs of nicotine withdrawal the minipumps were removed 6 days and 18 h after implantation. The behavioral observations were conducted 6, 12 and 24 h after the removal of the minipumps. The rats were injected with bupropion (0, 5, 10, 20, 40 mg/kg, IP; n=6-8), 30 min prior to the 12-h time point. The selection of the time points was based on the time-course of the expression of the somatic signs after the termination of nicotine exposure (Epping-Jordan et al. 1998; Harrison et al. 2001a; Semenova and Markou 2003; Skjei and Markou 2003).

male Wistar rats [2] = details: nicotine 0.25 mg/kg SC
Description: Trials began with an electrical stimulus followed by a 7.5-s response window within which the animal could make a response to receive a second contingent stimulus identical to the initial noncontingent stimulus. A response during this 7.5-s window was considered a positive response, whereas the lack of a response was considered a negative response. Additional responses during a 2-s period immediately following a positive response had no consequence. The intertrial interval (ITI) that followed either a positive response or the end of the response window (in the case of a negative response) ranged from 7.5 to 12.5 s with an average duration of 10 s. […] Subjects then were tested on a current-threshold procedure in which stimulus intensities were varied during four alternating descending and ascending series with a step size of 5 mA. Blocks of three trials were offered at each current step with the starting current of the first descending series set at 30-40 mA above the subjects' individual baseline thresholds estimated at the end of preliminary training. […] An ascending series was terminated after two consecutive blocks of trials during which the animal made positive responses on at least two out of the three trials or after 15 successive increments were presented. The mean of the four current thresholds from the alternating series was defined as the subject's ICSS threshold for that session. A series was terminated after either 15 stimulus increments (or decrements) had occurred, or after the determination of the threshold for the series (see below). Each test session typically lasted 30 min.

male Wistar rats [3] = test: Nicotine self-administration and food-maintained responding on a fixed ratio schedule in rats; type: in vivo, rat
Procedure: Two additional groups of rats were allowed to respond for food (45 mg Noyes food pellet) under a FR5 TO20 sec (n=10), and a FR5 TO210 sec (n=10) schedule. The two different schedules were employed to allow assessment of the effects of MPEP on responding for food under a reinforcement schedule (FR5 TO20 sec) identical to that used for nicotine, and under a reinforcement schedule (FR5 TO210) that equated response rates for food to those seen for nicotine. […] All test sessions were conducted for one hour per day, five days per week.
After acquiring stable nicotine self-administration at either 0.01 mg/kg/infusion (n=9) or 0.03 mg/kg/infusion (n=9), or stable food-maintained responding on the FR5 TO 20 sec schedule (n=10) or the FR5 TO210 sec schedule (n=10), drug testing was initiated. MPEP (0, 1, 3 and 9 mg/kg) was administered intraperitoneally 30 minutes before the session, according to a Latin Square design, with at least six days elapsing between each test dose.

drug-naïve rats = details: cited from earlier work

Row | Compound | total somatic signs of abstinence (male Wistar rats [1]) | brain reward thresholds (male Wistar rats [2]) | Number of reinforcers earned during the entire 1 hour session (male Wistar rats [3]; 1 mg/kg MPEP, 0.01 mg/kg/inf nic, FR5 TO20 sec) | Number of reinforcers earned during the entire 1 hour session (male Wistar rats [3]; 1 mg/kg MPEP, 0.03 mg/kg/inf nic, FR5 TO20 sec) | Number of reinforcers earned during the entire 1 hour session (male Wistar rats [3]; 1 mg/kg MPEP, 45 mg food pellet, FR5 TO20 sec) | Number of reinforcers earned during the entire 1 hour session (male Wistar rats [3]; 1 mg/kg MPEP, 45 mg food pellet, FR5 TO210 sec) | Number of reinforcers earned during the entire 1 hour session (male Wistar rats [3]; 3 mg/kg MPEP, 0.01 mg/kg/inf nic, FR5 TO20 sec) | Number of reinforcers earned during the entire 1 hour session (male Wistar rats [3]; 3 mg/kg MPEP, 0.03 mg/kg/inf nic, FR5 TO20 sec) | Number of reinforcers earned during the entire 1 hour session (male Wistar rats [3]; 3 mg/kg MPEP, 45 mg food pellet, FR5 TO20 sec) | Number of reinforcers earned during the entire 1 hour session (male Wistar rats [3]; 3 mg/kg MPEP, 45 mg food pellet, FR5 TO210 sec) | Number of reinforcers earned during the entire 1 hour session (male Wistar rats [3]; 9 mg/kg MPEP, 0.01 mg/kg/inf nic, FR5 TO20 sec) | Number of reinforcers earned during the entire 1 hour session (male Wistar rats [3]; 9 mg/kg MPEP, 0.03 mg/kg/inf nic, FR5 TO20 sec) | Number of reinforcers earned during the entire 1 hour session (male Wistar rats [3]; 9 mg/kg MPEP, 45 mg food pellet, FR5 TO20 sec) | Number of reinforcers earned during the entire 1 hour session (male Wistar rats [3]; 9 mg/kg MPEP, 45 mg food pellet, FR5 TO210 sec) | nicotine self-administration (male Wistar rats [3]; 3 and 9 mg/kg MPEP, 0.01 mg/kg/infusion nicotine) | nicotine self-administration (male Wistar rats [3]; MPEP 1, 3, 9 mg/kg, 0.03 mg/kg/inf nicotine) | inactive lever presses (male Wistar rats [3]; MPEP 1-9 mg/kg) | reward-lowering effect of nicotine in a brain reward stimulation procedure (drug-naïve rats; 0.25 mg/kg nicotine (Harrison et al. 2002)) | dose that elevated ICSS thresholds in drug-naïve rats (drug-naïve rats; previous studies (Harrison et al., 2002; Macey et al., 2001))
1 | CN1CCCC1c1cccnc1 (single isomer, unassigned; (-)) [nicotine, (−)-1-methyl-2-(3-pyridyl) pyrrolidine] | significant increase in the amount of total somatic signs of abstinence | resulted in lowering of brain reward thresholds | – | – | – | – | – | – | – | – | – | – | – | – | – | – | – | – | –
2 | Cc1cccc(C#Cc2ccccc2)n1 [MPEP, 2-methyl-6-(phenylethynyl)-pyridine] | – | – | 21 ± 3.1 | 13 ± 1.9 | 131.3 ± 8.2 | 16.3 ± 0.3 | 11 ± 2.7 | 11.4 ± 1.2 | 122.2 ± 7.4 | 15.2 ± 0.5 | 9.1 ± 3.0 | 4.8 ± 1.5 | 109 ± 12.98 | 15.2 ± 0.6 | significantly reduced self-administration of the 0.01 mg/kg/infusion nicotine dose relative to the vehicle condition | decreasing self-administration of the 0.03 mg/kg/inf dose only at 9 mg/kg | no effect of MPEP on inactive lever presses for any of the reinforcers | had no effect on the reward-lowering effect of 0.25 mg/kg nicotine | ≥ 3 mg/kg
